One data set has as its system 24-month-old rats. The settings on record: cited from earlier work.
The subject of another data set is aging accelerated mice. The settings on record: intraperitoneally injected daily; cited from earlier work.
The test system of the next data set is Dopaminergic neurons. As to the kind of experiment: Cytoprotection on injuries of dopaminergic neurons induced by MPP+. The format is cell-based. The settings on record: 500 μM, 50 μM and 5 μM, MPP+ 10 μM, FIG. 5. On the procedure:
Dopaminergic neurons were cultured for 5 days, and L-Deprenyl, TMP and TN-2 were added in a concentration gradient of 500 μM, 50 μM and 5 μM respectively. Two hours later, MPP^+(with a final concentration of 10 μM) was added into each of the wells except those of the control.

Another data set deals with PC12 cells. As to the kind of experiment: Cytoprotection of PC12 cells against t-BHP-induced damage (MTT). The conditions noted are these: t-BHP 200 μM, FIG. 3. The class given is cell-based, rats. The method, then: PC12 cells were inoculated in a 96-well plate of strong adsorption with 90 μL per well, cultured for 36 hrs in an incubator set at 37° C. and 5% CO2. After 36 hrs, each of the drugs was added in four concentration gradients. Cultured for half an hour in an incubator set at 37° C. and 5% CO2, replaced with serum-free medium, t-BHP ([…], final concentration of 200 μM) was added in each of the wells except the well of the control. Then the material was placed and cultured in an incubator for 24 hrs. The cells were cultured for 24 hrs, and MTT (15 μL, 5 mg/mL) was added in each of the wells. The material was cultured in an incubator for 4 hrs, and then DMSO ([…]) was added in each of the wells to be further incubated for at least half an hour to ensure the crystals were completely dissolved. The absorbance (A value) was measured by using a micro-plate reader at 570 nm.

Data set [1] relates to rats with ischemia caused by MCAo. As to the kind of experiment: Protection of rats having cerebral ischemia caused by MCAO (TTC, extent of cerebral infarction). The format is in vivo. The conditions noted are these: 65 mg/kg intravenously 1 hr after ischemia, 2 hrs ischemia, 24 hrs reperfusion, FIG. 4. On the procedure: Anesthesia was performed on rats (female SD rats, in body weight of 260-300 g) with intraperitoneal injection of 10% hydrated chloral hydrate in a dose of 400 mg/kg or with inhalation of 3.5% halothane. At the entrance of MCAO (Middle Cerebral Artery Occlusion Ischemia) was blocked with a nylon wire to cause cerebral ischemia. After ischemia occurred for 1 hr, the rats were respectively intravenously injected with EDA (63 mg/kg), TBN (80 mg/kg), TN-2 (65 mg/kg), and saline (control group). There were 6 rats in each group. After ischemia occurred for 2 hrs, the nylon wires were removed, and reperfusion was performed for 24 hrs. Brain tissues were taken and the cerebellums were removed. The material was rinsed in PBS solution, and put in a freezer set at −20° C. for a moment, and the brain tissues were cut into slices with a thickness of about 2 mm, and immediately placed in a solution of 0.5% triphenyltetrazolium chloride (TTC). Incubation was performed at 37° C. for 30 minutes. The extent of cerebral infarction was evaluated. […] In FIG. 4, the data were examined by one-tailed t-test; the mark “*” refers to the data in comparison with the control; drug dosage: TBN (80 mg/kg), and Edaravone (63 mg/kg); and each of the drugs were used in equal molarity.

For data set [2] the following is noted: in vivo; cited from earlier work.
Setting [3] is: 32 mg/kg intraperitoneally daily for 9.5 months.

Entries after “also recorded” stand apart in the source; their conditions may differ.

In the case of `CC(C)(C)/[N+]([O-])=C/c1ccccc1` [PBN, Phenyl-tert-Butyl Nitrones], in the data set on 24-month-old rats (setting [3]), the “cognitive ability for older rats” value was “enhanced”; the “lipid peroxidation reactions in cerebral cortex and globus pallidus” value was “diminished”. For the same molecule, the rats still alive with 24-month-old rats (when the experiment was run for 32 months) is 7 of the 11. For the same molecule, the “increase in the lifespan of the mice” value in the data set with aging accelerated mice is given as 33%.

`Cc1nc(/C=[N+](/[O-])C(C)(C)C)c(C)nc1/C=[N+](/[O-])C(C)(C)C` [TN-2]: in the data set on Dopaminergic neurons, the “cytoprotection to the MPP+-induced cell damage” value is “significant”. Further, in the data set on PC12 cells (24 hrs, MTT absorbance at 570 nm), the “cytoprotection towards the t-BHP-induced cell damage” value was “significant effect of cytoprotection; also recorded: significant protective effects”. Also, in the data set on PC12 cells, the “intensity of the cytoprotective effect compared with TMP” value is recorded as “significantly higher than that of TMP”. In data set [1], the “treatment effects on stroke of the rats (extent of cerebral infarction)” value was “significant treatment effects”.

Consider `Cc1nc(C)c(C)nc1C` [TMP, Tetramethylpyrazine], for which the bioavailability result in data set [2] is reported as “low”.

(Values after patent US8796281B2, “Lighting device having at least one heat sink” (Jinan University, priority 2010, dated 2014).)
